Measured values reported in patent US8304577B2, “Modulators of G protein-coupled receptor 88” (Bristol-Myers Squibb Company, priority 2009, dated 2012).

biological target: G protein-coupled receptor 88 (GPR88) (Homo sapiens, UniProt Q9GZN0); experiment: GPR88 functional assay: EC50 of Table 2 (GTPγS assay and cAMP HTRF assay described; table does not say which); format: cell-based; settings: class symbol; read-out: Range (EC50)
Procedure: 96 well GTPγS assay plates were purchased from Perkin Elmer. Wheat Germ Agglutinin PVT SPA beads and ^35S-GTPγS were purchased from Amersham GDP, GTPγS and all buffer reagents were from Sigma. 384 well white NBS plates were purchased from corning. Pertussis toxin was purchased from Calbiochem. All cell culture reagents were purchased from Invitrogen. Forskolin was purchased from Sigma. The cAMP HTRF kit was purchased fron Cisbio International.
The GTPγS assay buffer consisted of 10 mM MgCl2, 180 mM NaCl, 200 uM GDP, 0.167 mg/mL DTT, 1 mM EGTA and 20 mM HEPES pH7.4. This buffer was used for dilution of membranes, beads, and ^35S GTPγS components. To each well of the 96 well assay plate 48 ul assay buffer, 2 ul of 100× compound, 50 ul membrane solution (0.2 ug/ul), 50 ul ^35S GTPγS solution (0.8 nM) and 50 ul of SPA beads (10 mg/mL). Non-specific binding was determined by the addition of cold GTPγS to control wells. The plates were sealed with clear sealing tape and incubated at room temperature for 1 hour. GTPγS activity was detected using a Wallac Micro-Beta Trilux liquid scintillation counter. Non-specific binding was determined using 10 uM cold GTPγS.
The cAMP HTRF assay is modified from the Cisbio International kit procedure 62AM4PEJ. Assay plates were prepared by stamping 0.1 ul of 100× compound stock solutions diluted in DMSO or DMSO alone into 384 well NBS plates. The cAMP HTRF assay was performed using cells in suspension. The cAMP HTRF assay buffer consisted of Hank's Balanced Salt Solution (HBSS), 2 mM CaCl2, 5 mM MgCl2, 20 mM HEPES and 1 mM 3-isobutyl-1-methylxanthine (IBMX) (added fresh at the time of assay). For pertussis toxin treatment pertussis toxin (100 ng/mL) was added to culture medium for 16 hours prior to assay. Confluent cells were disrupted with cell dissociation buffer count cells then centrifuged at 1000×g for 5 minutes. The cell pellet was resuspended in assay buffer alone for basal cAMP measurements or with 0.75 uM forskolin (added immediately prior to addition to wells) for addition to all other wells. Using a Multidrop 384 (Lab systems) 10 ul of cell suspension was added to each well containing compound or DMSO. The plates were incubated at room temperature for 30 minutes covered. During this time the cAMP standard curve was prepared as per manufacturer's instruction. At the end of the incubation 10 ul of anti-cAMP cryptate and 10 ul cAMP-XL, diluted in manufacturer's lysis buffer, were added to each well. The plated were incubated at room temperature for 60 minutes covered then read on an Envision plate reader (Perkin Elmer) and the 665 nm/620 nm fluorescence ratio determined Fluorescence ratio values were converted to molar cAMP concentrations from the standard curve using the GraphPad Prism program.

Chain of G protein-coupled receptor 88 (GPR88) (Q9GZN0 whole entry, species assumed): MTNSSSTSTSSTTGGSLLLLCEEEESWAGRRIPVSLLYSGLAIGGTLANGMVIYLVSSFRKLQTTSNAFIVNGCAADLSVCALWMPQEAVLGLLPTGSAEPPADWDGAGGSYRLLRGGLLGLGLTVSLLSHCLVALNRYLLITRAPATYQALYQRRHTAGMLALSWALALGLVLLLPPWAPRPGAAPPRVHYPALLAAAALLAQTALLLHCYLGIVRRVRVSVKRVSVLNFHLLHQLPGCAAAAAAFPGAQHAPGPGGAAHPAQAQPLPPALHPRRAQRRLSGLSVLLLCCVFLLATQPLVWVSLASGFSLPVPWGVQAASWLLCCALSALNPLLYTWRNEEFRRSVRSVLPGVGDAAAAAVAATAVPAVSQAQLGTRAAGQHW

| SMILES | EC50 [nM] |
| --- | --- |
| CCCC(C)COc1ccc([C@H](CO)NC(=O)[C@@H](CO)c2ccccc2)cc1 (stereo partly drawn) [Example 3, (2R)-3-Hydroxy-N-((1R)-2-hydroxy-1-(4-(2-methylpentyloxy)phenyl)ethyl)-2-phenylpropanamide] | 100 to 200 |
| CCCC(C)COc1ccc([C@H](CN(C)C)NC(=O)[C@@H](C)c2ccccc2)cc1 (stereo partly drawn) [Example 6, (2S)-N-((1R)-2-(Dimethylamino)-1-(4-(2-methylpentyloxy)phenyl)ethyl)-2-phenylpropanamide] | 39 to 99 |
| CCCC(C)COc1ccc([C@H](CNCC(C)CC)NC(=O)[C@@H](C)c2ccccc2)cc1 (stereo partly drawn) [Example 8, (2S)-N-((1R)-2-(2-Methylbutylamino)-1-(4-(2-methylpentyloxy)phenyl)ethyl)-2-phenylpropanamide] | 100 to 200 |
| CCCC(C)COc1ccc([C@H](CNCc2ccncc2)NC(=O)[C@@H](C)c2ccccc2)cc1 (stereo partly drawn) [Example 9, (2S)-N-((1R)-1-(4-(2-Methylpentyloxy)phenyl)-2-(pyridin-4-ylmethylamino)ethyl)-2-phenylpropanamide] | 100 to 200 |
| CCCC(C)COc1ccc([C@H](CNCc2cc[nH]n2)NC(=O)[C@@H](C)c2ccccc2)cc1 (stereo partly drawn) [Example 11, (2S)-N-((1R)-2-((1H-Pyrazol-3-yl)methylamino)-1-(4-(2-methylpentyloxy)phenyl)ethyl)-2-phenylpropanamide] | 100 to 200 |
| CCCC(C)COc1ccc([C@H](CNCc2c[nH]c3ccccc23)NC(=O)[C@@H](C)c2ccccc2)cc1 (stereo partly drawn) [Example 12, (2S)-N-((1R)-2-((1H-Indol-3-yl)methylamino)-1-(4-(2-methylpentyloxy)phenyl)ethyl)-2-phenylpropanamide] | 100 to 200 |
| CCCC(C)COc1ccc([C@H](CNCC2CCOC2)NC(=O)[C@@H](C)c2ccccc2)cc1 (stereo partly drawn) [Example 14, (2S)-N-((1R)-1-(4-(2-Methylpentyloxy)phenyl)-2-((tetrahydrofuran-3-yl)methylamino)ethyl)-2-phenylpropanamide] | 100 to 200 |
| CCCC(C)COc1ccc([C@H](CNC(=O)[C@H](N)CC(C)C)NC(=O)[C@@H](C)c2ccccc2)cc1 (stereo partly drawn) [Example 20, (2R)-2-Amino-4-methyl-N-((2R)-2-(4-(2-methylpentyloxy)phenyl)-2-((S)-2-phenylpropanamido)ethyl)pentanamide] | 39 to 99 |
| CCCC(C)COc1ccc([C@H](CNC(=O)[C@H](N)[C@H](C)CC)NC(=O)[C@@H](C)c2ccccc2)cc1 (stereo partly drawn) [Example 22, (2R,3R)-2-Amino-3-methyl-N-((2R)-2-(4-(2-methylpentyloxy)phenyl)-2-((S)-2-phenylpropanamido)ethyl)pentanamide] | 39 to 99 |
| CCCC(C)COc1ccc([C@H](CNC(=O)[C@H](C)N)NC(=O)[C@@H](C)c2ccccc2)cc1 (stereo partly drawn) [Example 23, (2S)-2-Amino-N-((2R)-2-(4-(2-methylpentyloxy)phenyl)-2-((S)-2-phenylpropanamido)ethyl)propanamide] | 39 to 99 |
| CCCC(C)COc1ccc([C@H](CNC(=O)[C@@H](N)C(C)C)NC(=O)[C@@H](C)c2ccccc2)cc1 (stereo partly drawn) [Example 24, (2S)-2-Amino-3-methyl-N-((2R)-2-(4-(2-methylpentyloxy)phenyl)-2-((S)-2-phenylpropanamido)ethyl)butanamide] | 39 to 99 |
| CCCC(C)COc1ccc([C@H](CNC(=O)[C@@H](N)CCC)NC(=O)[C@@H](C)c2ccccc2)cc1 (stereo partly drawn) [Example 26, (2S)-2-Amino-N-((2R)-2-(4-(2-methylpentyloxy)phenyl)-2-((S)-2-phenylpropanamido)ethyl)pentanamide] | 39 to 99 |
| CCCC(C)COc1ccc([C@H](CNC(=O)[C@@H](C)N)NC(=O)[C@@H](C)c2ccccc2)cc1 (stereo partly drawn) [Example 29, (2R)-2-Amino-N-((2R)-2-(4-(2-methylpentyloxy)phenyl)-2-((S)-2-phenylpropanamido)ethyl)propanamide] | 100 to 200 |

Results, then the molecule that gave them:

| EC50 [nM] | SMILES |
| --- | --- |
| 100 to 200 | CCCC(C)COc1ccc(C(CN2CCN(C)CC2)NC(=O)[C@@H](C)c2ccccc2)cc1 (mixture of isomers) [Example 36, (2S)-N-(1-(4-(2-Methylpentyloxy)phenyl)-2-(4-methylpiperazin-1-yl)ethyl)-2-phenylpropanamide] |
| 100 to 200 | CCCC(C)COc1ccc([C@H](CO)NC(=O)[C@@H](CC)c2ccccc2)cc1 (stereo partly drawn) [Example 2, (2S)-N-((1R)-2-Hydroxy-1-(4-(2-methylpentyloxy)phenyl)ethyl)-2-phenylbutanamide] |
| 39 to 99 | CCCC(C)COc1ccc([C@H](CNCC2CC2)NC(=O)[C@@H](C)c2ccccc2)cc1 (stereo partly drawn) [Example 7, (2S)-N-((1R)-2-(Cyclopropylmethylamino)-1-(4-(2-methylpentyloxy)phenyl)ethyl)-2-phenylpropanamide] |
| 100 to 200 | CCCC(C)COc1ccc([C@H](CNCc2cccnc2)NC(=O)[C@@H](C)c2ccccc2)cc1 (stereo partly drawn) [Example 13, (2S)-N-((1R)-1-(4-(2-Methylpentyloxy)phenyl)-2-(pyridin-3-ylmethylamino)ethyl)-2-phenylpropanamide] |
| 39 to 99 | CCCC(C)COc1ccc([C@H](CNCC2(N)CCCC2)NC(=O)[C@@H](C)c2ccccc2)cc1 (stereo partly drawn) [Example 15, (2S)-N-((1R)-2-((1-Aminocyclopentyl)methylamino)-1-(4-(2-methylpentyloxy)phenyl)ethyl)-2-phenylpropanamide] |
| 100 to 200 | CCCC(C)COc1ccc([C@H](CNC[C@H](C)N)NC(=O)[C@@H](C)c2ccccc2)cc1 (stereo partly drawn) [Example 17, (2S)-N-((1R)-2-((S)-2-Aminopropylamino)-1-(4-(2-methylpentyloxy)phenyl)ethyl)-2-phenylpropanamide] |
| 39 to 99 | CCCC(C)COc1ccc([C@H](CNC(=O)[C@@H](N)[C@@H](C)CC)NC(=O)[C@@H](C)c2ccccc2)cc1 (stereo partly drawn) [Example 19, (2S,3S)-2-Amino-3-methyl-N-((2R)-2-(4-(2-methylpentyloxy)phenyl)-2-((S)-2-phenylpropanamido)ethyl)pentanamide] |
| 39 to 99 | CCCC(C)COc1ccc([C@H](CNC(=O)[C@@H](N)CC)NC(=O)[C@@H](C)c2ccccc2)cc1 (stereo partly drawn) [Example 25, (2S)-2-Amino-N-((2R)-2-(4-(2-methylpentyloxy)phenyl)-2-((S)-2-phenylpropanamido)ethyl)butanamide] |
| 100 to 200 | CCCC(C)COc1ccc([C@H](CNC(=O)[C@@H](N)[C@H](C)CC)NC(=O)[C@@H](C)c2ccccc2)cc1 (stereo partly drawn) [Example 27, (2S,3R)-2-Amino-3-methyl-N-((2R)-2-(4-(2-methylpentyloxy)phenyl)-2-((S)-2-phenylpropanamido)ethyl)pentanamide] |
| 100 to 200 | CCCC(C)COc1ccc([C@H](CNC(=O)[C@@H](N)CC2CC2)NC(=O)[C@@H](C)c2ccccc2)cc1 (stereo partly drawn) [Example 28, (2S)-2-Amino-3-cyclopropyl-N-((2R)-2-(4-(2-methylpentyloxy)phenyl)-2-((S)-2-phenylpropanamido)ethyl)propanamide] |

same assay, conditions: exact value given; read-out: Range (EC50)

| SMILES | EC50 [nM] |
| --- | --- |
| CCCC(C)COc1ccc([C@H](CNCc2ccccn2)NC(=O)[C@@H](C)c2ccccc2)cc1 (stereo partly drawn) [Example 10, (2S)-N-((1R)-1-(4-(2-Methylpentyloxy)phenyl)-2-(pyridin-2-ylmethylamino)ethyl)-2-phenylpropanamide] | 110 |
| CCCC(C)COc1ccc([C@H](CNC[C@@H]2CCCN2)NC(=O)[C@@H](C)c2ccccc2)cc1 (stereo partly drawn) [Example 16, (2S)-N-((1R)-1-(4-(2-Methylpentyloxy)phenyl)-2-((S)-pyrrolidin-2-ylmethylamino)ethyl)-2-phenylpropanamide] | 100 |
| CCCC(C)COc1ccc([C@H](CNC(=O)[C@@H]2CCCN2)NC(=O)[C@@H](C)c2ccccc2)cc1 (stereo partly drawn) [Example 21, (2S)-N-((2R)-2-(4-(2-Methylpentyloxy)phenyl)-2-((S)-2-phenylpropanamido)ethyl)pyrrolidine-2-carboxamide] | 89 |

The remaining lines, values ahead:

| EC50 [nM] | SMILES |
| --- | --- |
| 54 | CCCC(C)COc1ccc([C@H](CN)NC(=O)[C@@H](C)c2ccccc2)cc1 (stereo partly drawn) [Example 5, (2S)-N-((1R)-2-Amino-1-(4-(2-methylpentyloxy)phenyl)ethyl)-2-phenylpropanamide] |
| 154 | CCCC(C)COc1ccc([C@H](CNC[C@H]2CCCN2)NC(=O)[C@@H](C)c2ccccc2)cc1 (stereo partly drawn) [Example 18, (2S)-N-((1R)-1-(4-(2-Methylpentyloxy)phenyl)-2-((R)-pyrrolidin-2-ylmethylamino)ethyl)-2-phenylpropanamide] |
